For this test, the target named is T1, GST-tagged wild-type human CRBN protein (Homo sapiens, UniProt Q96SW2).
T1 construct: purchased Cisbio 64BDCRBNPEG
T1 sequence (Q96SW2 whole entry): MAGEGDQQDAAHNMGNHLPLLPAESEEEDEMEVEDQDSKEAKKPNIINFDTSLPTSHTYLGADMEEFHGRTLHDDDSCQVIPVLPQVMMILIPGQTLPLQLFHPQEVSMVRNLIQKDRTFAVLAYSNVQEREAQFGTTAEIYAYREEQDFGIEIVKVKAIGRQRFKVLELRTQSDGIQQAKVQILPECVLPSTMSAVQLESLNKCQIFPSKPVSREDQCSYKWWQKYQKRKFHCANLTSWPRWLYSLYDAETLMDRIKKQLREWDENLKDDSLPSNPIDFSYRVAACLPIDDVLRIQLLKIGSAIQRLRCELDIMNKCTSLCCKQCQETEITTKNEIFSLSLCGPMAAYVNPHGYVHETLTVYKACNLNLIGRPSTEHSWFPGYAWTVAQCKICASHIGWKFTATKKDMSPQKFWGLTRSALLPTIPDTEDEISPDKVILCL
Description: Cereblon Binding Assay (Cisbio Cereblon Binding Kit, TR-FRET). The note with it: TR-FRET competition with XL665-labelled Thalidomide, room temperature about 3 hours. Here is the method:
In some embodiments, the biological assay may involve evaluation of CRBN binding activity, e.g., in Cereblon Binding Kit (Cisbio, #64BDCRBNPEG).
In some embodiments, the cell line is maintained and cultured, e.g., at room temperature for about 3 hours.
In some embodiments, the Fluorescence Resonance Energy Transfer (TR-FRET) measurements of the cell line is recorded and evaluated.
Procedure for Cereblon Binding Assay. The binding to cereblon (CRBN) was determined using the Cereblon Binding Kit (Cisbio, #64BDCRBNPEG) following the manufacturer's instruction. Briefly, serially diluted compounds were incubated with GST-tagged wild-type human CRBN protein, XL665-labelled Thalidomide and Europium Cryptate labelled GST antibody at room temperature for about 3 hours. […] The readings were normalized to the control (0.5%) and the ICso was calculated by nonlinear regression (four parameters sigmoid fitted with variable slope) analysis using the GraphPad Prism 8 software.
For `O=C1CCC(N2C(=O)c3cc4c(cc3C2=O)CC2(CNC2)C4)C(=O)N1` (stereo not shown) [Example 217], the 50% inhibitory concentration (IC50) was over 10000 nM.

`O=C1CCC(N2Cc3cc4c(cc3C2=O)CC2(CNC2)C4)C(=O)N1` (stereo not shown) [Example 218] returned an IC50 of 1000 to 10000 nM.

Regarding `O=C1CCC(N2C(=O)c3ccc4c(c3C2=O)CNC4)C(=O)N1` (stereo not shown) [Example 219], the IC50 fell in the range of 1000 to 10000 nM.

`COc1c2c(cc3c1CN(C1CCC(=O)NC1=O)C3=O)CN(Cc1ccccc1)C2` (stereo not shown) [Example 220]: the half-maximal inhibitory concentration (IC50) is under 500 nM.

With `O=C1CCC(N2C(=O)c3cc4c(cc3C2=O)CN(Cc2ccc(F)cc2)CC4)C(=O)N1` (stereo not shown) [Example 221], the concentration for half-maximal inhibition (IC50) was 500 to 1000 nM.

Regarding `O=C1CCC(N2Cc3cc4c(cc3C2=O)CN(Cc2ccc(F)cc2)C4)C(=O)N1` (stereo not shown) [Example 222], the 50% inhibitory concentration (IC50) is under 500 nM.

On to `O=C1CCC(N2C(=O)c3cc4c(cc3C2=O)CCN(Cc2ccc(F)cc2)CC4)C(=O)N1` (stereo not shown) [Example 223], for which the IC50 lay within 1000 to 10000 nM.

The compound `O=C1CCC(N2C(=O)c3cc4c(cc3C2=O)CN(Cc2cccc3c2OCCO3)C4)C(=O)N1` (stereo not shown) [Example 224] yielded a concentration for half-maximal inhibition (IC50) of under 500 nM.

As for `O=C1CCC(N2Cc3cc4c(cc3C2=O)CN(C(=O)c2cccc3c2CCC3)C4)C(=O)N1` (stereo not shown) [Example 225], the IC50 was under 500 nM.

Compound `O=C1CCC(N2Cc3cc4c(cc3C2=O)CN(C(=O)c2cccc3c2OCO3)C4)C(=O)N1` (stereo not shown) [Example 226] showed an IC50 of under 500 nM.

For `O=C1CCC(N2C(=O)c3cc4c(cc3C2=O)CN(Cc2ccc(C(F)(F)F)cc2)CCC4)C(=O)N1` (stereo not shown) [Example 227], the IC50 is 500 to 1000 nM.

`O=C1CCC(N2C(=O)c3cc4c(cc3C2=O)CC(CN2CCC(Cc3ccc(F)cc3)CC2)C4)C(=O)N1` (stereo not shown) [Example 228] had a half-inhibitory concentration (IC50) of under 500 nM.

In the case of `O=C1CCC(N2C(=O)c3cc4c(cc3C2=O)CC(CN2CC3(CN(Cc5ccc(F)cc5)C3)C2)C4)C(=O)N1` (stereo not shown) [Example 229], the IC50 is 500 to 1000 nM.

Take `O=C1CCC(N2Cc3cc4c(cc3C2=O)CN(C2CN(Cc3ccc(F)c(F)c3)C2)C4=O)C(=O)N1` (stereo not shown) [Example 230]: the half-maximal inhibitory concentration (IC50) was 500 to 1000 nM.

In turn, `O=C1CCC(N2Cc3cc4c(cc3C2=O)CN(CC2CN(Cc3ccc(F)c(F)c3)C2)C4=O)C(=O)N1` (stereo not shown) [Example 231] gave an IC50 of 500 to 1000 nM.

With `CCN1CC(N2Cc3cc4c(cc3C2=O)CN(C2CCC(=O)NC2=O)C4=O)C1` (stereo not shown) [Example 232], the concentration for half-maximal inhibition (IC50) lay within 500 to 1000 nM.

In the case of `CC(=O)N1CC(N2Cc3cc4c(cc3C2=O)CN(C2CCC(=O)NC2=O)C4=O)C1` (stereo not shown) [Example 233], the IC50 lay in the range of 1000 to 10000 nM.

The compound `COc1c2c(cc3c1C(=O)N(C1CCC(=O)NC1=O)C3=O)CN(CC1CN(Cc3ccc(F)cc3Cl)C1)C2` (stereo not shown) [Example 234] showed a concentration for half-maximal inhibition (IC50) of 500 to 1000 nM.

Turning to `O=C1CCC(N2Cc3cc4c(cc3C2=O)CC2(C4)CN(Cc3ccc(F)cc3)C2)C(=O)N1` (stereo not shown) [Example 235], the 50% inhibitory concentration (IC50) was in the range of 500 to 1000 nM.

`O=C(O)CN1Cc2cc3c(cc2C1)C(=O)N(C1CCC(=O)NC1=O)C3=O` (stereo not shown) [Example 236] came in with an IC50 of under 500 nM.

`O=C(O)CN1Cc2cc3c(cc2C1)C(=O)N(C1CCC(=O)NC1=O)C3` (stereo not shown) [Example 237] had an IC50 of under 500 nM.

`O=C(O)CN1CCc2cc3c(cc2C1)C(=O)N(C1CCC(=O)NC1=O)C3=O` (stereo not shown) [Example 238] displayed an IC50 of 1000 to 10000 nM.

In turn, `O=C(O)CCN1Cc2cc3c(cc2C1)C(=O)N(C1CCC(=O)NC1=O)C3=O` (stereo not shown) [Example 239] yielded an IC50 of under 500 nM.

`O=C(O)CCCN1Cc2cc3c(cc2C1)C(=O)N(C1CCC(=O)NC1=O)C3=O` (stereo not shown) [Example 240]: the half-inhibitory concentration (IC50) was under 500 nM.

`O=C(O)CCN1CCc2cc3c(cc2C1)C(=O)N(C1CCC(=O)NC1=O)C3=O` (stereo not shown) [Example 241] gave an IC50 of 500 to 1000 nM.

`O=C(O)CCCN1CCc2cc3c(cc2C1)C(=O)N(C1CCC(=O)NC1=O)C3=O` (stereo not shown) [Example 242]: the IC50 is 1000 to 10000 nM.

Take `O=C(O)CN1CCc2cc3c(cc2CC1)C(=O)N(C1CCC(=O)NC1=O)C3=O` (stereo not shown) [Example 243]: the IC50 was 500 to 1000 nM.

`CNC1CCC(N2Cc3cc4c(cc3C2)C(=O)N(C2CCC(=O)NC2=O)C4=O)CC1` (stereo not shown) [Example 244]: the 50% inhibitory concentration (IC50) was under 500 nM.

In turn, `O=C1CCC(N2C(=O)c3cc4c(cc3C2=O)CN(Cc2ccc(F)nc2)C4)C(=O)N1` (stereo not shown) [Example 245] displayed an IC50 of under 500 nM.

Take `O=C1CCC(N2C(=O)c3cc4c(cc3C2=O)CN(Cc2cnc(Cl)nc2)C4)C(=O)N1` (stereo not shown) [Example 246]: the half-inhibitory concentration (IC50) was in the range of 1000 to 10000 nM.

For `O=C1CCC(N2Cc3cc4c(cc3C2)C(=O)N(C2CCC(=O)NC2=O)C4=O)CC1` (stereo not shown) [Example 247], the IC50 fell in the range of 500 to 1000 nM.

`NC1CCC(N2Cc3cc4c(cc3C2)C(=O)N(C2CCC(=O)NC2=O)C4=O)CC1` (stereo not shown) [Example 248] gave a half-maximal inhibitory concentration (IC50) of under 500 nM.

Regarding `O=C1CCC(N2Cc3cc4c(cc3C2)C(=O)N(C2CCC(=O)NC2=O)C4)CC1` (stereo not shown) [Example 249], the half-inhibitory concentration (IC50) was in the range of 500 to 1000 nM.

On to `O=C1CCC(N2C(=O)c3cc4c(cc3C2=O)CN(C(=O)C2CCC3(CCNCC3)CC2)C4)C(=O)N1` (stereo not shown) [Example 250], for which the IC50 was under 500 nM.

Consider `O=C1CCC(N2C(=O)c3cc4c(cc3C2=O)CN(C2CCC(C(=O)O)CC2)C4)C(=O)N1` (stereo not shown) [Example 251], for which the IC50 was in the range of 500 to 1000 nM.

On to `O=C1CCC(C(=O)N2Cc3cc4c(cc3C2)C(=O)N(C2CCC(=O)NC2=O)C4=O)CC1` (stereo not shown) [Example 252], for which the IC50 was under 500 nM.

The compound `O=C1CCC(N2C(=O)c3cc4c(cc3C2=O)CN(C(=O)C2CCNCC2)C4)C(=O)N1` (stereo not shown) [Example 253] had an IC50 of under 500 nM.

As to `O=C1CCC(N2Cc3cc4c(cc3C2=O)CN(C(=O)C2CCNCC2)C4)C(=O)N1` (stereo not shown) [Example 254], the IC50 is under 500 nM.

For `O=C1CCC(N2C(=O)c3ccc4c(c3C2=O)CNCC4)C(=O)N1` (stereo not shown) [Example 255], the IC50 lay in the range of 1000 to 10000 nM.

In turn, `O=C1CCC(N2Cc3cc4c(cc3C2=O)CN(C2CCNCC2)C4=O)C(=O)N1` (stereo not shown) [Example 256] registered an IC50 of under 500 nM.

Compound `O=C1CCC(N2C(=O)c3cc4c(cc3C2=O)CCNCC4)C(=O)N1` (stereo not shown) [Example 257] registered an IC50 of 1000 to 10000 nM.

Turning to `O=C1CCC(N2C(=O)c3cc4c(cc3C2=O)CNCC4)C(=O)N1` (stereo not shown) [Example 258], the half-inhibitory concentration (IC50) was 1000 to 10000 nM.

The compound `O=C1CCC(N2C(=O)c3cc4c(cc3C2=O)CN([C@H]2C[C@H](C(=O)O)C2)C4)C(=O)N1` (stereo partly shown) [Example 259] displayed a concentration for half-maximal inhibition (IC50) of 500 to 1000 nM.

The compound `O=C1CCC(N2C(=O)c3cc4c(cc3C2=O)CN(C2CNC2)C4)C(=O)N1` (stereo not shown) [Example 260] had an IC50 of under 500 nM.

`O=C1CCC(N2C(=O)c3cc4c(cc3C2=O)CN(C2CC3(CCNCC3)C2)C4)C(=O)N1` (stereo not shown) [Example 261] gave an IC50 of 1000 to 10000 nM.

`O=C1CCC(N2C(=O)c3cc4c(cc3C2=O)CN(C2CCCC23CCNCC3)C4)C(=O)N1` (stereo not shown) [Example 262] displayed an IC50 of 1000 to 10000 nM.

Take `O=C1CCC(N2Cc3cc4c(cc3C2=O)CN(CC2CCNCC2)C4)C(=O)N1` (stereo not shown) [Example 263]: the IC50 is 500 to 1000 nM.

Take `O=C1CCC(N2C(=O)c3cc4c(cc3C2=O)CN(C2CCNC2)C4)C(=O)N1` (stereo not shown) [Example 264]: the half-maximal inhibitory concentration (IC50) was under 500 nM.

`O=C1CCC(N2C(=O)c3cc4c(cc3C2=O)CN(C2CCNCC2)C4)C(=O)N1` (stereo not shown) [Example 265] yielded an IC50 of 500 to 1000 nM.

For `O=C1CCC(N2C(=O)c3cc4c(cc3C2=O)CN(C2CCC3(CCNCC3)CC2)C4)C(=O)N1` (stereo not shown) [Example 266], the half-inhibitory concentration (IC50) was under 500 nM.

Consider `O=C1CCC(N2Cc3cc4c(cc3C2=O)CN(C2CCNCC2)C4)C(=O)N1` (stereo not shown) [Example 267], for which the half-maximal inhibitory concentration (IC50) fell in the range of 1000 to 10000 nM.

Turning to `COC1(CN2Cc3cc4c(cc3C2)C(=O)N(C2CCC(=O)NC2=O)C4=O)CCN(C(=O)OC(C)(C)C)CC1` (stereo not shown) [Example 268], the IC50 lay in the range of 500 to 1000 nM.

Compound `CC1(CN2Cc3cc4c(cc3C2)C(=O)N(C2CCC(=O)NC2=O)C4=O)CCN(C(=O)OC(C)(C)C)CC1` (stereo not shown) [Example 269] came in with an IC50 of under 500 nM.

`CC(C)(C)OC(=O)N1CCC(F)(CN2Cc3cc4c(cc3C2)C(=O)N(C2CCC(=O)NC2=O)C4=O)CC1` (stereo not shown) [Example 270] had an IC50 of 500 to 1000 nM.

The compound `O=C1CCC(N2C(=O)c3cc4c(cc3C2=O)CN(CC2CN(c3ccc(C(=O)O)cc3)C2)C4)C(=O)N1` (stereo not shown) [Example 271] returned an IC50 of under 500 nM.

Regarding `O=C1CCC(N2C(=O)c3cc4c(cc3C2=O)CN(CC2CCN(c3ccc(C(=O)O)cc3)CC2)C4)C(=O)N1` (stereo not shown) [Example 272], the IC50 was under 500 nM.

`O=C1CCC(N2Cc3cc4c(cc3C2=O)CNC4)C(=O)N1` (stereo not shown) [Example 274]: the half-maximal inhibitory concentration (IC50) is 1000 to 10000 nM.

For the compound `COc1c2c(cc3c1CN(C1CCC(=O)NC1=O)C3=O)CNC2` (stereo not shown) [Example 275], the IC50 is 500 to 1000 nM.

Source of the values: patent US20240166647A1, “Cereblon Ligands” (THE REGENTS OF THE UNIVERSITY OF MICHIGAN, priority 2021, published 2024).
